Tested on: LG0703-F948-PDC complex spheroid viability
Test: Anticancer human tumor LG0703-F948-PDC patient-derived lung adenocarcinoma cell line growth inhibition [RAS]
Conditions: for IC50: curve of first compound; for viability, T/C: stronger effect = lower value; active means viability on the fitted dose curve at most 10% of control; inactive means the rest
Source text: RAS pathway inhibitors in Combinations in Complex Spheroids
A high-throughput screen of multi-cell type tumor spheroids was designed to identify active combinations of RAS pathway inhibitors and targeted small molecules. Complex spheroids include a stromal component modeled by human endothelial cells (HUVEC) and fibroblasts modeled by human mesenchymal stem cells (MSCs). The concentration ranges selected for each drug and investigational agent were based upon clinically achievable concentrations if the clinical Cmax of the agent was known.
Compounds. The drugs and investigational agents: abemaciclib (NSC768073), cobimetinib (NSC768068), divarasib (GDC6063, NSC841802), docetaxel (NSC628503), GDC-1971 (RLY-1971, NSC841576), gemcitabine (NSC613327), inavolisib (NSC800729), ipatasertib (NSC767898), KB-0742 (NSC834161), MRTX-1133 (NSC836407), osimertinib (NSC779217), RMC-4630 (NSC839698), RMC-6236 (NSC851965), RMC-6291 (NSC852671), Ro-3306 (NSC812927), sapanisertib (NSC764658), SN-38 (NSC673596), staurosporine (NSC755774), SY5609 (NSC837396), and tovorafenib (DAY101, NSC766906), were obtained from the National Cancer Institute (NCI) Developmental Therapeutics Program Chemical Repository. The FDA-approved anticancer drug set is available from the NCI Developmental Therapeutics Program. […] The stock solutions were prepared in dimethyl sulfoxide (DMSO, Sigma-Aldrich, St. Louis, MO, cat. D2650) at 800-fold the tested concentration and stored at -70 degrees C prior to their use. All drugs and investigational agents were tested over a range starting from a high concentration at or near the clinical Cmax and decreasing in half-log increments. If the clinical Cmax for an agent had not been determined, the highest concentration tested was 10 microM.
Cell Culture. All cells were maintained in an incubator at 37 degrees C and 5% CO2 with 95% humidity. The PDC lines were cultured according to standard operating procedures established by the NCI PDMR. All PDCs were thawed and cultured in Matrigel-coated flasks prepared with a working solution of 1X Ham's F-12 nutrient mix, without supplementation (Invitrogen, Waltham, MA, cat. 11765054), 100 U/mL penicillin-streptomycin (Invitrogen, cat. 15140122), and 2.5% Matrigel (Corning Inc., Corning, NY, cat. 354248) for the first three passages. The 362531-283-R-J2-PDC and 782815-120-R-J1-PDC lines were cultured in 6C/Colon 1B media, which includes advanced DMEM/F-12 (Thermo Fisher Scientific, cat. 12634028), 10 mM HEPES (Thermo Fisher Scientific, cat. 15630080), 1X GlutaMAX supplement (Thermo Fisher Scientific, cat. 35050061), 0.1 mg/mL primocin (InvivoGen, San Diego, CA, cat. ant-pm-2), 10% defined fetal bovine serum, heat inactivated (HyClone Laboratories Inc., Logan, UT, cat. SH30070.03HI), 50% L-WRN conditioned media (ATCC, cat. CRL-3276), 1.25 mM N-Acetyl-L-cysteine (Sigma-Aldrich, cat. A9165), 10 mM nicotinamide (Sigma-Aldrich, cat. N0636), 1X B-27 supplement (Thermo Fisher Scientific, cat. 17504044), 1X N-2 supplement (Thermo Fisher Scientific, cat. 17502048), 50 ng/mL human EGF (Thermo Fisher Scientific, cat. PHG0311), and 10 microM Y-27632 dihydrochloride (Tocris Bioscience, cat. 1254). The K12877-001-R-J1-PDC line was cultured in 6I media, which includes all 6C/Colon 1B media plus 10 ng/mL human FGF-10 (PeproTech, cat. 100-26), 1 ng/mL human FGF-2 (PeproTech, cat. 100-18B), 1 µM prostaglandin E2 (Tocris Bioscience, cat. 2296), […] hydrocortisone (Sigma-Aldrich, cat. H4001), and […] bovine insulin (Sigma-Aldrich, cat. I6634). The K86415-001-R-J1-PDC line was cultured in 6D media, which includes all 6C/Colon 1B media components minus the L-WRN conditioned media. The 485176-168-R4-J1-PDC was cultured in PANC media, which includes all 6C/Colon 1B media plus 100 ng/mL human FGF-10 (PeproTech, cat. 100-26), 500 nM SB-431542 (Selleckchem, cat. S1067), and 10 nM gastrin (Tocris Bioscience, cat. 3006). […]

[1] = second compound 0.0316 µM, first compound 0.0316 µM
[2] = second compound 0.0316 µM, first compound 0.1 µM
[3] = second compound 0.0316 µM, first compound 0.316 µM
[4] = second compound 0.0316 µM, first compound 1 µM
[5] = second compound 0.0316 µM, first compound 3.16 µM
[6] = second compound 0.0316 µM, first compound 10 µM
[7] = second compound 0.1 µM, first compound 0.0316 µM
[8] = second compound 0.1 µM, first compound 0.1 µM
[9] = second compound 0.1 µM, first compound 0.316 µM
[10] = second compound 0.1 µM, first compound 1 µM
[11] = second compound 0.1 µM, first compound 3.16 µM
[12] = second compound 0.1 µM, first compound 10 µM
[13] = second compound 0.316 µM, first compound 0.0316 µM
[14] = second compound 0.316 µM, first compound 0.1 µM
[15] = second compound 0.316 µM, first compound 0.316 µM
[16] = second compound 0.316 µM, first compound 1 µM
[17] = second compound 0.316 µM, first compound 3.16 µM
[18] = second compound 0.316 µM, first compound 10 µM
[19] = second compound 1 µM, first compound 0.0316 µM
[20] = second compound 1 µM, first compound 0.1 µM
[21] = second compound 1 µM, first compound 0.316 µM
[22] = second compound 1 µM, first compound 1 µM
[23] = second compound 1 µM, first compound 3.16 µM
[24] = second compound 1 µM, first compound 10 µM
[25] = second compound 3.16 µM, first compound 0.0316 µM
[26] = second compound 3.16 µM, first compound 0.1 µM
[27] = second compound 3.16 µM, first compound 0.316 µM
[28] = second compound 3.16 µM, first compound 1 µM
[29] = second compound 3.16 µM, first compound 3.16 µM
[30] = second compound 3.16 µM, first compound 10 µM
[31] = second compound 10 µM, first compound 0.0316 µM
[32] = second compound 10 µM, first compound 0.1 µM
[33] = second compound 10 µM, first compound 0.316 µM
[34] = second compound 10 µM, first compound 1 µM
[35] = second compound 10 µM, first compound 3.16 µM
[36] = second compound 10 µM, first compound 10 µM
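Wherever viability, T/C is given: 100% = DMSO vehicle wells.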

CC1(O)CCCC1n1c(=O)c(C(F)F)cc2cnc(NC3CCN(S(C)(=O)=O)CC3)nc21 (stereo unspecified) + C#Cc1c(F)ccc2cc(O)cc(-c3ncc4c(N5CC6CCC(C5)N6)nc(OCC56CCCN5CC(F)C6)nc4c3F)c12
5040 nM: IC50 (second compound 0.316 µM)
5730 nM: IC50 (second compound 1 µM)
active: viability, T/C [36] 4.24%
7250 nM: IC50 (second compound 0.1 µM)
inactive: viability, T/C [1] 109% | viability, T/C [2] 92.2% | viability, T/C [3] 97.8% | viability, T/C [4] 87% | viability, T/C [5] 77.1% | viability, T/C [6] 31.6% | viability, T/C [7] 131% | viability, T/C [8] 109% | viability, T/C [9] 82.4% | viability, T/C [10] 76.3% | viability, T/C [11] 87.7% | viability, T/C [12] 29.5% | viability, T/C [13] 83.9% | viability, T/C [14] 72.4% | viability, T/C [15] 74.5% | viability, T/C [16] 65.9% | viability, T/C [17] 69.4% | viability, T/C [18] 23.9% | viability, T/C [19] 78.3% | viability, T/C [20] 82.7% | viability, T/C [21] 88.3% | viability, T/C [22] 67.1% | viability, T/C [23] 86.7% | viability, T/C [24] 21.3% | viability, T/C [25] 71.5% | viability, T/C [26] 62% | viability, T/C [27] 69.1% | viability, T/C [28] 61.6% | viability, T/C [29] 63% | viability, T/C [30] 13.6% | viability, T/C [31] 50% | viability, T/C [32] 71.3% | viability, T/C [33] 55.2% | viability, T/C [34] 62.9% | viability, T/C [35] 65.1%
6150 nM: IC50 (second compound 0.0316 µM)
3940 nM: IC50 (second compound 10 µM)
4260 nM: IC50 (second compound 3.16 µM)

CCC(CC)c1cc(NC2CCC(N)C2)n2nccc2n1 (stereo unspecified) + C#Cc1c(F)ccc2cc(O)cc(-c3ncc4c(N5CC6CCC(C5)N6)nc(OCC56CCCN5CC(F)C6)nc4c3F)c12
936 nM: IC50 (second compound 1 µM)
1150 nM: IC50 (second compound 0.0316 µM)
1350 nM: IC50 (second compound 0.316 µM)
inactive: viability, T/C [1] 95% | viability, T/C [2] 80.1% | viability, T/C [3] 83.9% | viability, T/C [4] 56.7% | viability, T/C [7] 97.5% | viability, T/C [8] 80.8% | viability, T/C [9] 87.7% | viability, T/C [10] 55.1% | viability, T/C [13] 81.2% | viability, T/C [14] 68% | viability, T/C [15] 73.4% | viability, T/C [16] 66.5% | viability, T/C [19] 73.4% | viability, T/C [20] 69.8% | viability, T/C [21] 65.1% | viability, T/C [22] 49.3% | viability, T/C [25] 64% | viability, T/C [26] 55.3% | viability, T/C [27] 56.7% | viability, T/C [28] 33.8% | viability, T/C [31] 45% | viability, T/C [32] 56% | viability, T/C [33] 31.7% | viability, T/C [34] 19%
35.1 nM: IC50 (second compound 10 µM)
active: viability, T/C [5] 2.63% | viability, T/C [6] 0.05% | viability, T/C [11] 2.53% | viability, T/C [12] 0.22% | viability, T/C [17] 3.15% | viability, T/C [18] 0.1% | viability, T/C [23] 2.65% | viability, T/C [24] 0.06% | viability, T/C [29] 1.79% | viability, T/C [30] 0.56% | viability, T/C [35] 0.77% | viability, T/C [36] 0.53%
1120 nM: IC50 (second compound 0.1 µM)
456 nM: IC50 (second compound 3.16 µM)

CCN1CCN(Cc2ccc(Nc3ncc(F)c(-c4cc(F)c5nc(C)n(C(C)C)c5c4)n3)nc2)CC1 + C#Cc1c(F)ccc2cc(O)cc(-c3ncc4c(N5CC6CCC(C5)N6)nc(OCC56CCCN5CC(F)C6)nc4c3F)c12
7.25 nM: IC50 (second compound 10 µM)
> 1000 nM: IC50 (second compound 0.0316 µM) | IC50 (second compound 0.1 µM) | IC50 (second compound 0.316 µM) | IC50 (second compound 1 µM) | IC50 (second compound 3.16 µM)
inactive: viability, T/C (second compound 0.0316 µM, first compound 0.00316 µM) 114% | viability, T/C (second compound 0.0316 µM, first compound 0.01 µM) 84% | viability, T/C [1] 78.3% | viability, T/C [2] 92.2% | viability, T/C [3] 82.7% | viability, T/C [4] 79.8% | viability, T/C (second compound 0.1 µM, first compound 0.00316 µM) 119% | viability, T/C (second compound 0.1 µM, first compound 0.01 µM) 90.3% | viability, T/C [7] 92.1% | viability, T/C [8] 90.5% | viability, T/C [9] 74% | viability, T/C [10] 69.7% | viability, T/C (second compound 0.316 µM, first compound 0.00316 µM) 103% | viability, T/C (second compound 0.316 µM, first compound 0.01 µM) 99.5% | viability, T/C [13] 84.5% | viability, T/C [14] 81.1% | viability, T/C [15] 75.5% | viability, T/C [16] 70% | viability, T/C (second compound 1 µM, first compound 0.00316 µM) 84% | viability, T/C (second compound 1 µM, first compound 0.01 µM) 77.7% | viability, T/C [19] 68.5% | viability, T/C [20] 68.7% | viability, T/C [21] 77.6% | viability, T/C [22] 64.1% | viability, T/C (second compound 3.16 µM, first compound 0.00316 µM) 73.2% | viability, T/C (second compound 3.16 µM, first compound 0.01 µM) 71.9% | viability, T/C [25] 56.8% | viability, T/C [26] 57% | viability, T/C [27] 71.3% | viability, T/C [28] 45% | viability, T/C (second compound 10 µM, first compound 0.00316 µM) 62.5% | viability, T/C (second compound 10 µM, first compound 0.01 µM) 44.3% | viability, T/C [31] 47.7% | viability, T/C [32] 47.5% | viability, T/C [33] 49.5% | viability, T/C [34] 36.9%

Reference: PubChem BioAssay AID2060890 (Molecular Pharmacology Branch, DTP, NCI, 2025)
